From US8912195B2, “Alkyl amides as HIV attachment inhibitors” (priority 2010, dated 2014)
Where two headings read alike, the source gives them in different places.

System: single-round infectious reporter virus with HIV-1 LAI envelope
Assay: Single-round infectious HIV-1 LAI luciferase reporter virus infection of MT2 cells
Assay type: cell-based
Details: Human immunodeficiency virus 1, MT2, 72 h
Text: • Virus production—Human embryonic Kidney cell line, 293T (HEK 293T), was propagated in Dulbecco's Modified Eagle Medium (Invitrogen, Carlsbad, Calif.) containing 10% fetal Bovine serum (FBS, Sigma, St. Louis, Mo.). The human T-cell leukemia cell MT2 (AIDS Research and Reference Reagent Program, Cat. 237) was propagated in RPMI 1640 (Invitrogen, Carlsbad, Calif.) containing 10% fetal bovine serum (FBS, Hyclone, Logan, Utah) • Virus infection—Single-round infectious reporter virus was produced by co-transfecting HEK 293T cells with plasmide expressing the HIV-1 LAI envelope along with a plasmid containing an HIV-1 LAI proviral cDNA with the envelope gene replaced by a firefly luciferase reporter gene (Chen et al, Ref 41). Transfections were performed using lipofectAMINE PLUS reagent as described by the manufacturer (Invitrogen, Carlsbad, Calif.).
• 1. MT2 cells were plated in black, 384 well plates at a cell density of 5×10^3 cells per well in 25 μl RPMI 1640 containing 10% FBS. • 2. Compound (diluted in dimethylsulfoxide and growth medium) was added to cells at 12.5 μl/well, so that the final assay concentration would be ≦50 nM. • 3. 12.5 μl of single-round infectious reporter virus in Dulbecco's Modified Eagle Medium was added to the plated cells and compound at an approximate multiplicity of infection (MOI) of 0.01, resulting in a final volume of 50 μl per well. • 4. Virus-infected cells were incubated at 37 degrees Celsius, in a CO2 incubator, and harvested 72 h after infection. • 5. Viral infection was monitored by measuring luciferase expression in the infected cells using a luciferase reporter gene assay kit (Steady-Glo, Promega, Madison, Wis.) as described by the manufacturer. Luciferase activity was then quantified by measuring luminescence using an EnVision Multilabel Plate Readers (PerkinElmer, Waltham, Mass.). • 6. The percent inhibition for each compound was calculated by quantifying the level of luciferase expression in cells infected in the presence of each compound as a percentage of that observed for cells infected in the absence of compound and subtracting such a determined value from 100. • 7. An EC50 provides a method for comparing the antiviral potency of the compounds of this disclosure. The effective concentration for fifty percent inhibition (EC50) was calculated with the Microsoft Excel Xlfit curve fitting software. For each compound, curves were generated from percent inhibition calculated at 10 different concentrations by using a four paramenter logistic model (model 205). Table 1 is the key for the data in Table 2.

[1] = read-out: EC50 Group from Table 1

| SMILES | EC50 [1] | EC50 |
| --- | --- | --- |
| CC1(C)CC(C(=O)N2CCN(C(=O)C(=O)c3c[nH]c4c(-n5ccnn5)ncc(F)c34)CC2)CC(C)(C)N1 [Compound 2025] | > 500 nM |  |
| CN1CCCC(C(=O)N2CCN(C(=O)C(=O)c3c[nH]c4c(-n5ccnn5)ncc(F)c34)CC2)C1 (stereo not shown) [Compound 2021] | < 500 nM | 76.9 nM |
| CC(C)CC(=O)N1CCN(C(=O)C(=O)c2c[nH]c3c(-n4ccnn4)ncc(F)c23)CC1 [Compound 1001, 1-(4-fluoro-7-(1H-1,2,3-triazol-1-yl)-1H-pyrrolo[2,3-c]pyridin-3-yl)-2-(4-(3-methylbutanoyl)piperazin-1-yl)ethane-1,2-dione] | < 500 nM |  |
